Results as given in patent publication US12194080B2, “Methods for identification, assessment, prevention, and treatment of metabolic disorders using PM20D1 and N-lipidated amino acids” (Dana-Farber Cancer Institute, Inc., priority 2015, dated 2025).

What was measured:
C2C12 cells = test: Cellular oxygen consumption rate (uncoupled respiration), C2C12 cells; type: cell-based, mouse; settings: 50 μM, after oligomycin 1 μM
Procedure: (§1) C2C12, U2O5, and 293A cells were cultured in DMEM with 10% FBS and pen/strep. Primary inguinal (iWAT) and brown (BAT) adipocytes were obtained as follows. The stromal-vascular fraction of inguinal (iWAT) pad from 4-12 week old male mice was dissected, minced, and digested for 45 min. at 37° C. in PBS containing 10 mM CaCl2, 2.4 U/ml dispase II (Roche), and 1.5 U/ml collagenase D (Roche). The stromal-vascular fraction of brown fat (BAT) pads from newborn (P1-P14) pups was dissected, minced, and digested for 45 min at 37° C. in PBS containing 1.3 mM CaCl2, 120 mM NaCl, 5 mM KCl, 5 mM glucose, 100 mM HEPES, 4% BSA, and 1.5 mg/ml collagenase B (Roche). Digested tissue was diluted with adipocyte culture media (DMEM/F-12, GlutaMAX™ supplement, Life Technologies, with 10% FBS and pen/strep) and centrifuged (600×g for 10 min.). The pellet was resuspended in 10 ml adipocyte culture media, strained through a 40 μm filter, and plated. Differentiation was induced by application of an adipogenic cocktail containing 5 μg/ml insulin (Sigma), 5 μM dexamethasone (Sigma), 250 μM isobutylmethylxanthine (Sigma), and 1 μM rosiglitazone (Cayman) for 2 days. Two days after induction, cells were maintained in adipocyte culture media containing 5 μg/ml insulin and 1 μM rosiglitazone.
(§2) Cellular oxygen consumption rates were determined using an XF24 Extracellular Flux Analyzer (Seahorse Biosciences). Oligomycin was purchased from EMD Millipore, and FCCP and rotenone were purchased from Sigma. C2C12 or U2OS cells were seeded at 30,000 or 50,000 cells/well, respectively in an XF24 cell culture microplate (V7-PS, Seahorse Bioscience) and analyzed the following day. Primary iWAT or BAT adipocytes were seeded at 15,000 cells/well, differentiation was induced the following day as described, and the cells were analyzed on day 5. On the day of analysis, the cells were washed once with Seahorse respiration buffer (8.3 g/1 DMEM, 1.8 g/l NaCl, 1 mM pyruvate, 20 mM glucose, pen/strep), placed in 0.5 ml Seahorse respiration buffer, and incubated in a CO2-free incubator for 1 hr. Port injection solutions were prepared as follows (final concentrations in assay in parentheses): 10 μM oligomycin (1 μM final), […] amino acid (50 μM final), 2 μM FCCP (0.2 μM final), and 30 μM rotenone (3 μM final). The Seahorse program was run as follows: basal measurement, 3 cycles; inject port A (oligomycin), 3 cycles; inject port B (compounds), 8 cycles; inject port C (FCCP), 3 cycles; inject port D (rotenone), 3 cycles. Each cycle consisted of mix 4 min, wait 0 min, and measure 2 min. For data expressed as a percentage of oligomycin-treated basal, the respiration at cycle 6 was normalized to 100%, and the maximum respiration at any time point between cycles 7 and 15 inclusive was used.

[1] = tested on: Diet induced obese (DIO) mice; test: Chronic daily i.p. administration of N-acyl amino acids to DIO mice (body weight, food intake, body composition, GTT); type: in vivo, mouse; settings: for body weight lost: after 8 days treatment, mean±SEM
Procedure: (§3) Animal experiments were performed according to procedures approved by the Beth Israel Deaconess Medical Center IACUC. Mice were maintained in 12 h light-dark cycles at 22° C. and fed a standard irradiated rodent chow diet. All experiments on wild-type mice were performed with male C57BL/6 mice purchased from Jackson Laboratories, except for the AAV experiments, which were performed with male C57BL/6 mice from Charles River. UCP1-KO (stock #017476) and 16-20 week DIO mice (stock #380050) were obtained from Jackson Laboratories. For AAV injection experiments, mice were gently warmed using a 250 W clear infrared heat lamp, immobilized, and injected via tail vein with 10^10 virus/mouse (diluted in saline) in a total volume of 100 μl/mouse. Where indicated, mice were placed on high-fat diet (60% fat, Research Diets). For cold exposure experiments, mice were group housed and placed at 4° C. for the indicated times. For the preparation of C18:1-Phe for in vivo injections, compounds were dissolved in 18:1:1 v/v/v saline:Kolliphor® EL (Sigma Aldrich):DMSO and sonicated until homogeneous. Mice were administered compounds at 5 μl/g body weight at the indicated doses. For all injection experiments, mice were mock injected with saline daily for 3 days prior to the start of the experiments. For glucose tolerance tests (GTTs), mice received their final dose of compound the day prior to the assay and were then fasted overnight. Glucose was administered at 1.5 g/kg.
(§4) Energy expenditure, O2 consumption, CO2 production, respiratory exchange ratio, total locomotor activity, and food intake measurements were made with a 16-cage Columbus Instruments Oxymax Comprehensive Lab Animal Monitoring System (CLAMS) at ambient room temperature (21-23° C.). Mice were acclimated for one day in metabolic cages prior to data collection. Whole-body composition was assessed with an EchoMRI™ 3-in-1 on conscious mice.

[2] = tested on: Diet induced obese (DIO) mice; test: Indirect calorimetry (CLAMS) of high fat diet/DIO mice treated with N-acyl amino acids; type: in vivo, mouse
Procedure: as §3, §4

U2OS cells = test: Cellular oxygen consumption rate (uncoupled respiration), U2OS cells; type: cell-based, human; settings: 50 μM, after oligomycin 1 μM
Procedure: as §1, §2

[3] = tested on: primary inguinal fat cells, primary BAT cells, C2C12 cells, and U2OS cells; test: Uncoupled respiration cellular assays (variety of cell types); type: cell-based; settings: N-acyl amino acids at 10-100 uM
Procedure: as §2

[4] = tested on: differentiated primary iWAT cells; test: Cellular oxygen consumption rate (Seahorse XF24), differentiated primary iWAT adipocytes; type: cell-based, mouse; settings: 50 μM, in presence of oligomycin; control fatty acid
Procedure: as §1, §2

mouse PM20D1 = molecular target: T1, mouse PM20D1 (Mus musculus, UniProt Q8C165); test: In vitro PM20D1-catalyzed synthesis of N-acyl amino acids; type: biochemical; settings: head group 100 μM; oleate or arachidonate 1.5 mM, C18:1-CoA 0.7 mM
T1 construct: Full-length mouse Pm20d1 cDNA (GE Dharmacon) was subcloned with an in-frame C-terminal 6× His and FLAG® tag; made in house; host or cells: 293A (HEK293A) cells stably infected with retrovirus
T1 sequence (Q8C165 25-503): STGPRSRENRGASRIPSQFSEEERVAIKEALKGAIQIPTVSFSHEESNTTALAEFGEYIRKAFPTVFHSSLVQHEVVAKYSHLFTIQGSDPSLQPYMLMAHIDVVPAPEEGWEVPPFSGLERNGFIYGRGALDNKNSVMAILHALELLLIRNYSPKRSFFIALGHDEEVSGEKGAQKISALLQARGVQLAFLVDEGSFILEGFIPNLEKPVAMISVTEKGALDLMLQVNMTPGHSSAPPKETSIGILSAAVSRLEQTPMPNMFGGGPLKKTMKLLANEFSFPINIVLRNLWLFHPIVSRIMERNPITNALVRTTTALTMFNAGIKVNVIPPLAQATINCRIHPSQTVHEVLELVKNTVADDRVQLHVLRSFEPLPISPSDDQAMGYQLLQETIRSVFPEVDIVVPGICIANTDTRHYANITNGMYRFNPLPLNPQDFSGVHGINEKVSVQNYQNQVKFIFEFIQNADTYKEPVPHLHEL
Procedure: The concentrated media was centrifuged to remove debris (600×g, 10 min, 4° C.) and the supernatant containing PM20D1-flag was decanted into a new tube. PM20D1-Flag was immunoaffinity purified overnight at 4° C. from the concentrated media using magnetic Flag-M2 beads (Sigma Aldrich). The beads were collected, washed three times in PBS, eluted with 3× Flag peptide ([…] in PBS, Sigma Aldrich), aliquoted, and stored at −80° C. For the purification of human PM20D1-flag, hPM20D1-flag plasmid (Origene) was transiently transfected into 293A cells. After two days, the media was changed, harvested 24 h later, concentrated, and purified exactly as described above.
In vitro PM20D1-catalyzed synthesis of N-acyl amino acids was measured by incubating purified PM20D1 protein with oleate (1.5 mM) and phenylalanine (0.1 mM) in PBS (to 100 μl final volume) at 37° C. for 1.5 hrs. In vitro PM20D1-catalyzed N-acyl amino acid hydrolysis was measured by incubating purified PM20D1 protein with the indicated N-acyl amino acid (0.1 mM) in PBS (to 100 μl final volume) at 37° C. for 1.5 hrs. Reactions were terminated by placing the vials at −80° C. and the products generated in vitro were analyzed by mass spectroscopy (MS).
Briefly, frozen serum (30 μl) for polar metabolomic analyses were extracted in 160 μl of 1:1 acetonitrile/methanol with inclusion of internal standard D3, ^15N-serine (1 nmol). Activity assays (100 μl) were extracted in 400 μl 1:1 acetonitrile/methanol. Following 30 s of thorough vortexing and 1 min of bath sonication, the polar metabolite fraction (supernatant) was isolated by centrifugation at 13,000×g for 10 min. Ten μl of this supernatant was analyzed by SRM-based targeted LC-MS/MS, or untargeted LC-MS.
For separation of polar metabolites, normal-phase chromatography was performed with a […] column (50 mm×4.60 mm, Phenomenex). Mobile phases were as follows: Buffer A, acetonitrile; Buffer B, 95:5 water/acetonitrile with 0.1% formic acid or 0.2% ammonium hydroxide with 50 mM ammonium acetate for positive and negative ionization mode, respectively. The flow rate for each run started at 0.2 ml/min for 2 min, followed by a gradient starting at 0% B and increasing linearly to 100% B over the course of 15 min with a flow rate of 0.7 ml/min, followed by an isocratic gradient of 100% B for 10 min at 0.7 ml/min before equilibrating for 5 min at 0% B with a flow rate of 0.7 ml/min. MS analysis was performed with an electrospray ionization (ESI) source on an Agilent 6430 QQQ LC—MS/MS. The capillary voltage was set to 3.5 kV, and the fragmentor voltage was set to 100 V. The drying gas temperature was 325° C., the drying gas flow rate was 10 l/min, and the nebulizer pressure was 45 psi. For polar targeted and untargeted metabolomic analysis, representative metabolites were quantified by SRM of the transition from precursor to product ions (corresponding to amino acid fragment) at associated collision energies. Several representative fragmentation ions are as follows: C18:1-Ala, 352>88; C18:1-Gly, 338>74; C18:1-Phe, 428>164; C18:1-Leu/Ile, 394>130; C20:4-Phe, 450>164; C20:4-Leu/Ile, 416>130. Untargeted LC-MS was performed by scanning a mass range of m/z 50-1200, and data were exported as mzdata files and uploaded to XCMSOnline (xcmsserver.nutr.berkeley.edu) to identify metabolites that were differentially changed. For targeted metabolomics analysis, metabolites were quantified by integrating the area under the peak and were normalized to internal standard values corresponding to 1 nmol D3, ^15N-serine.

[5] = daily i.p.: C18:1-Leu 25, C18:1-Phe 30, C20:4-Gly 15 mg/kg/day

CCCCCCCC/C=C\CCCCCCCC(=O)N[C@@H](CC(C)C)C(=O)O [C18:1-Leu, Oleoyl-L-leucine]
uncoupling activity (uncoupled respiration) (C2C12 cells): significantly more potent than the free fatty acid alone
reduction of food intake versus vehicle-treated mice ([1]; 25 mg/kg, i.p., daily): 17%
body weight lost ([1]; 25 mg/kg, i.p., daily): 4.1 ± 0.3 g
body composition analysis (weight loss) ([1]; 25 mg/kg/day i.p., MRI): entirely accounted for by a difference in fat mass
GTT ([1]; 25 mg/kg/day i.p., glucose 1.5 g/kg, versus vehicle- or oleate-treated mice): improvements
RER ([2]; C18:1-Leu 25 mg/kg/day i.p.): significantly lower
VCO2 ([2]; C18:1-Leu 25 mg/kg/day i.p.): significantly augmented
food intake over the final two days of the experiment ([2]; C18:1-Leu 25 mg/kg/day i.p., metabolic cages): reduced food intake
VO2 [2, 5]: significantly augmented
movement [2, 5]: slightly reduced

CCCCCCCCCCCCCCCCCCCC(=O)N[C@@H](Cc1ccccc1)C(=O)O [N-arachidoyl phenylalanine, Icosanoyl-L-phenylalanine]
uncoupling activity (uncoupled respiration) (U2OS cells): completely lacked uncoupling activity
uncoupled respiration in cells [3]: inactive

CCCCCCCCCCCC(=O)N[C@@H](Cc1ccccc1)C(=O)O [N-lauroyl phenylalanine, Dodecanoyl-L-phenylalanine]
uncoupling activity (uncoupled respiration) (U2OS cells): completely lacked uncoupling activity
uncoupled respiration in cells [3]: inactive

CCCCCCCCCCCCCCCC(=O)N[C@@H](Cc1ccccc1)C(=O)O [N-palmitoyl phenylalanine, Palmitoyl-L-phenylalanine]
uncoupling activity (uncoupled respiration) (U2OS cells): possessed uncoupling activity
uncoupled respiration in cells [3]: increased uncoupled respiration

CCCCCCCCCCCCCCCCCC(=O)N[C@@H](Cc1ccccc1)C(=O)O [N-stearoyl phenylalanine, Stearoyl-L-phenylalanine]
uncoupling activity (uncoupled respiration) (U2OS cells): possessed uncoupling activity
uncoupled respiration in cells [3]: increased uncoupled respiration

CCCCC/C=C\C/C=C\C/C=C\C/C=C\CCCC(=O)O [arachidonate, arachidonic acid, reference compound]
oxygen consumption rate [4]: increased the oxygen consumption rate very modestly
substrate of the PM20D1 synthase reaction (mouse PM20D1): capable of using arachidonate as a fatty acid donor

CCCCCCCC/C=C\CCCCCCCC(=O)[O-].[Na+] [oleate, sodium oleate, reference compound]
uncoupled respiration in cells [3]: inactive
substrate of the PM20D1 synthase reaction (mouse PM20D1): strong preference for free oleate over oleoyl-coenzyme A
body weight lost ([1]; 25 mg/kg, i.p., daily): 0.3 ± 0.2 g
